Data as given in the NIST ThermoML archive (doi:10.1021/je5009679).

Settings: Liquid; for viscosity: Concentric cylinders viscometry

CC(=O)[O-].CCCCn1cc[n+](C)c1 [1-butyl-3-methylimidazolium acetate]
101.33 kPa
Settings | viscosity [mPa·s]
293.15 K | 592.3
303.15 K | 274.1
313.15 K | 142.4
323.15 K | 81.88
333.15 K | 51.11
343.15 K | 33.65
353.15 K | 23.51
363.15 K | 17.09
373.15 K | 12.93

Settings | mass density [kg/m3]
293.15 K, 101.33 kPa, Vibrating tube method | 1053.8
303.15 K, 101.33 kPa, Vibrating tube method | 1047.4
311.4 K, 10000 kPa, Bellows volumetry | 1046.7
311.4 K, 20000 kPa, Bellows volumetry | 1050.8
311.4 K, 30000 kPa, Bellows volumetry | 1054.8
311.4 K, 40000 kPa, Bellows volumetry | 1058.6
311.4 K, 50000 kPa, Bellows volumetry | 1062.3
311.4 K, 60000 kPa, Bellows volumetry | 1065.8
311.4 K, 70000 kPa, Bellows volumetry | 1069.3
311.4 K, 80000 kPa, Bellows volumetry | 1072.7
311.4 K, 90000 kPa, Bellows volumetry | 1076
311.4 K, 100000 kPa, Bellows volumetry | 1079
311.4 K, 110000 kPa, Bellows volumetry | 1082.1
311.4 K, 120000 kPa, Bellows volumetry | 1085.1
311.4 K, 130000 kPa, Bellows volumetry | 1088.1
311.4 K, 140000 kPa, Bellows volumetry | 1090.9
311.4 K, 150000 kPa, Bellows volumetry | 1093.7
311.4 K, 160000 kPa, Bellows volumetry | 1096.5
311.4 K, 170000 kPa, Bellows volumetry | 1099.1
311.4 K, 180000 kPa, Bellows volumetry | 1101.9
311.4 K, 190000 kPa, Bellows volumetry | 1104.5
311.4 K, 200000 kPa, Bellows volumetry | 1107.1
313.15 K, 101.33 kPa, Vibrating tube method | 1041.4
323.15 K, 101.33 kPa, Vibrating tube method | 1035.4
331.1 K, 10000 kPa, Bellows volumetry | 1034.7
331.1 K, 20000 kPa, Bellows volumetry | 1039.1
331.1 K, 30000 kPa, Bellows volumetry | 1043.3
331.1 K, 40000 kPa, Bellows volumetry | 1047.3
331.1 K, 50000 kPa, Bellows volumetry | 1051.2
331.1 K, 60000 kPa, Bellows volumetry | 1054.9
331.1 K, 70000 kPa, Bellows volumetry | 1058.5
331.1 K, 80000 kPa, Bellows volumetry | 1062.1
331.1 K, 90000 kPa, Bellows volumetry | 1065.2
331.1 K, 100000 kPa, Bellows volumetry | 1068.7
331.1 K, 110000 kPa, Bellows volumetry | 1071.9
331.1 K, 120000 kPa, Bellows volumetry | 1075
331.1 K, 130000 kPa, Bellows volumetry | 1078.2
331.1 K, 140000 kPa, Bellows volumetry | 1081.1
331.1 K, 150000 kPa, Bellows volumetry | 1084
331.1 K, 160000 kPa, Bellows volumetry | 1086.8
331.1 K, 170000 kPa, Bellows volumetry | 1089.6
331.1 K, 180000 kPa, Bellows volumetry | 1092.4
331.1 K, 190000 kPa, Bellows volumetry | 1095.1
331.1 K, 200000 kPa, Bellows volumetry | 1097.7
333.15 K, 101.33 kPa, Vibrating tube method | 1029.5
343.15 K, 101.33 kPa, Vibrating tube method | 1023.7
351.3 K, 10000 kPa, Bellows volumetry | 1023.2
351.3 K, 20000 kPa, Bellows volumetry | 1027.7
351.3 K, 30000 kPa, Bellows volumetry | 1032.1
351.3 K, 40000 kPa, Bellows volumetry | 1036.4
351.3 K, 50000 kPa, Bellows volumetry | 1040.4
351.3 K, 60000 kPa, Bellows volumetry | 1044.3
351.3 K, 70000 kPa, Bellows volumetry | 1048
351.3 K, 80000 kPa, Bellows volumetry | 1051.6
351.3 K, 90000 kPa, Bellows volumetry | 1055
351.3 K, 100000 kPa, Bellows volumetry | 1058.4
351.3 K, 110000 kPa, Bellows volumetry | 1061.7
351.3 K, 120000 kPa, Bellows volumetry | 1065
351.3 K, 130000 kPa, Bellows volumetry | 1068.1
351.3 K, 140000 kPa, Bellows volumetry | 1071.2
351.3 K, 150000 kPa, Bellows volumetry | 1074.3
351.3 K, 160000 kPa, Bellows volumetry | 1077.3
351.3 K, 170000 kPa, Bellows volumetry | 1080.2
351.3 K, 180000 kPa, Bellows volumetry | 1083
351.3 K, 190000 kPa, Bellows volumetry | 1086
351.3 K, 200000 kPa, Bellows volumetry | 1088.5
353.15 K, 101.33 kPa, Vibrating tube method | 1017.9
363.15 K, 101.33 kPa, Vibrating tube method | 1012
371.3 K, 10000 kPa, Bellows volumetry | 1011.7
371.3 K, 20000 kPa, Bellows volumetry | 1016.5
371.3 K, 30000 kPa, Bellows volumetry | 1021.2
371.3 K, 40000 kPa, Bellows volumetry | 1025.5
371.3 K, 50000 kPa, Bellows volumetry | 1029.6
371.3 K, 60000 kPa, Bellows volumetry | 1033.8
371.3 K, 70000 kPa, Bellows volumetry | 1037.7
371.3 K, 80000 kPa, Bellows volumetry | 1041.5
371.3 K, 90000 kPa, Bellows volumetry | 1045
371.3 K, 100000 kPa, Bellows volumetry | 1048.5
371.3 K, 110000 kPa, Bellows volumetry | 1051.9
371.3 K, 120000 kPa, Bellows volumetry | 1055.3
371.3 K, 130000 kPa, Bellows volumetry | 1058.6
371.3 K, 140000 kPa, Bellows volumetry | 1061.8
371.3 K, 150000 kPa, Bellows volumetry | 1064.9
371.3 K, 160000 kPa, Bellows volumetry | 1067.8
371.3 K, 170000 kPa, Bellows volumetry | 1071
371.3 K, 180000 kPa, Bellows volumetry | 1073.9
371.3 K, 190000 kPa, Bellows volumetry | 1076.8
371.3 K, 200000 kPa, Bellows volumetry | 1079.5
373.15 K, 101.33 kPa, Vibrating tube method | 1006.1
